Tests used:
[1] = system: ovariectomized (OVX) rats; test: Serum cholesterol in ovariectomized rat post-menopausal model; type: in vivo, Sprague Dawley rats; conditions: oral, daily for 4 days
Protocol: (§1) In the examples illustrating the methods, a post-menopausal model was used in which effects of different treatments upon circulating lipids were determined.
(§2) Seventy-five day old female Sprague Dawley rats (weight range of 200 to 225g) were obtained from Charles River Laboratories (Portage, Mich.). The animals were either bilaterally ovariectomized (OVX) or exposed to a Sham surgical procedure at Charles River Laboratories, and then shipped after one week. Upon arrival, they were housed in metal hanging cages in groups of 3 or 4 per cage and had ad libitum access to food (calcium content approximately 0.5%) and water for one week. Room temperature was maintained at 22.2°±1.7° C. with a minimum relative humidity of 40%. The photoperiod in the room was 12 hours light and 12 hours dark.
(§3) Dosing Regimen Tissue Collection. After a one week acclimation period (therefore, two weeks post-OVX) daily dosing with test compound was initiated. 17α-ethynyl estradiol or the test compound were given orally, unless otherwise stated, as a suspension in 1% carboxymethylcellulose or dissolved or suspended in 20% cyclodextrin. Animals were dosed daily for 4 days. Following the dosing regimen, animals were weighed and anesthetized with a ketamine: Xylazine (2:1, V:V) mixture and a blood sample was collected by cardiac puncture. The animals were then sacrificed by asphyxiation with CO2, the uterus was removed through a midline incision, and a wet uterine weight was determined.
Cholesterol Analysis. Blood samples were allowed to clot at room temperature for 2 hours, and serum was obtained following centrifugation for 10 minutes at 3000 rpm. Serum cholesterol was determined using a Boehringer Mannheim Diagnostics high performance cholesterol assay. Briefly the cholesterol was oxidized to cholest-4-en-3-one and hydrogen peroxide. The hydrogen peroxide was then reacted with phenol and 4-aminophenazone in the presence of peroxidase to produce a p-quinone imine dye, which was read spectrophotometrically at 500 nm. Cholesterol concentration was then calculated against a standard curve. The entire assay was automated using a Biomek Automated Workstation.

[2] = system: ovariectomized (OVX) rats; test: Uterine eosinophil peroxidase (EPO) assay; type: in vivo, Sprague Dawley rats; set-up: unit not given here; conditions: oral, daily for 4 days
Text: as §2, §3
Uterine Eosinoihil Peroxidase (EPO) Assay. Uteri were kept at 4° C. until time of enzymatic analysis. The uteri were then homogenized in 50 volumes of 50 mM Tris buffer (pH -8.0) containing 0.005% Triton X-100. Upon addition of 0.01% hydrogen peroxide and 10 mM O-phenylenediamine (final concentrations) in Tris buffer, increase in absorbance was monitored for one minute at 450 nm. The presence of eosonophils in the uterus is an indication of estrogenic activity of a compound. The maximal velocity of a 15 second interval was determined over the initial, linear portion of the reaction curve.

[3] = system: ovariectomized (OVX) rats; test: Uterine wet weight in ovariectomized rat post-menopausal model; type: in vivo, Sprague Dawley rats; conditions: for Uterine weight (% increase vs. OVX): oral, daily for 4 days, OVX rats
Protocol: as §1, §2, §3

[4] = system: ovariectomized (OVX) rats; test: Uterine eosinophil peroxidase (EPO) assay; type: in vivo, Sprague Dawley rats
[5] = dose 0.1 mg/kg, test compounds in CDX susp. or soln.
[6] = dose 1 mg/kg, CDX susp. or soln.
[7] = dose 10 mg/kg, CDX susp. or soln.
[8] = dose 0.1 mg/kg, test compounds in CDX (cyclodextrin) susp. or soln.

| melting point | Uterine EPO (V. max) [2, 5] | Uterine EPO (V. max) [2, 6] | Uterine EPO (V. max) [2, 7] | Uterine weight (% increase vs. OVX) [3, 8] | Uterine weight (% increase vs. OVX) [3, 6] | Uterine weight (% increase vs. OVX) [3, 7] | SMILES | Serum Cholesterol (% decrease vs. OVX) [1, 5] | Serum Cholesterol (% decrease vs. OVX) [1, 6] | Serum Cholesterol (% decrease vs. OVX) [1, 7] | Eosinophil infiltration into the uterus (stromal layer), in words [4] | Effect on uterus / uterine weight (in words) ([3]; orally administered at 0.1 mg/kg/day, vs. ovariectomized test animals) |
| --- | --- | --- | --- | --- | --- | --- | --- | --- | --- | --- | --- | --- |
| 244 to 248 °C | 0.0 | 0.0 | 1.2 | −45.9% | −37.0% | 29.3% | O=C(O)CCc1ccc(C(=O)c2c(-c3ccc(O)cc3)sc3cc(O)ccc23)cc1 [Example 4, 6-hydroxy-3-[4-(2-carboxyethyl)benzoyl]-2-(4-hydroxyphenyl)benzo[b]thiophene] | −46.2% | −28.8% | 16.5% |  |  |
| 204 to 207 °C | 2.1 | 2.1 | 35.1 | 25.0% | 23.3% | 119.9% | COc1ccc(-c2sc3cc(OC)ccc3c2C(=O)c2ccc(/C=C/C(=O)O)cc2)cc1 [Example 2] | −16.6% | −37.3% | 73.2% |  |  |
|  | 0.9 | 1.2 | 8.4 | 23.9% | 19.7% | 97.3% | O=C(O)/C=C/c1ccc(C(=O)c2c(-c3ccc(O)cc3)sc3cc(O)ccc23)cc1 [Example 3, (E)-6-hydroxy-3-[4-(2-carboxyvinyl)benzoyl]-2-(4-hydroxyphenyl)benzo[b]thiophene] | −15.1% | −26.6% | 57.7% |  |  |
|  | 130.5 |  |  | 201.3% |  |  | C#C[C@]1(O)CC[C@H]2[C@@H]3CCc4cc(O)ccc4[C@H]3CC[C@@]21C [EE2, 17α-ethynyl estradiol, reference compound] | 68.6% |  |  | substantial, expected increase in eosinophil infiltration | uterine weight was substantially greater than the uterine weight of ovariectomized test animals |

— US6440958B1, “Acrylic and propionic acid compounds, intermediates, processes, compositions, and methods” (Eli Lilly and Company, priority 1995, dated 2002)
